In ChEMBL document CHEMBL3864166, “4-Carbonyl-2,6-dibenzylidenecyclohexanone derivatives as small molecule inhibitors of STAT3 signaling pathway” (Bioorg Med Chem, 2016):
The source made the active and inactive calls. The calls are words filed in the database; no cut-off is given here.

How the values were obtained:
[1] = Antiproliferative activity against human MDA-MB-231 cells after 48 hrs by MTT assay; assay type: functional, cell-based; conditions: MDA-MB-231, 48 h
[2] = Antiproliferative activity against human DU145 cells after 48 hrs by MTT assay; assay type: functional, cell-based; conditions: DU-145, 48 h
[3] = Antiproliferative activity against human A549 cells after 48 hrs by MTT assay; assay type: functional, cell-based; conditions: A549, 48 h
[4] = test system: DU-145; assay: Selectivity ratio of IC50 for human DU145 cells to IC50 for human MDA-MB-231 cells; assay type: functional
[5] = target: T1, Signal transducer and activator of transcription 3 (Homo sapiens, UniProt P40763); assay: Inhibition of IL6-stimulated STAT3 phosphorylation at Tyr-705 residue in human MDA-MB-231 cells at 1 to 4 uM preincubated for 2 hrs followed by IL6 stimulation measured after 30 mins by Western blot analysisis; assay type: cell-based
[6] = Effect on total STAT3 protein expression in human MDA-MB-231 cells at 1 to 4 uM after 24 hrs by Western blot analysis; assay type: ADME, cell-based; conditions: mda-mb-231, 24 h
[7] = target: T1, Signal transducer and activator of transcription 3; assay: Binding affinity to STAT3 (unknown origin) expressed in Escherichia coli expression system by SPR assay
[8] = target: T1, Signal transducer and activator of transcription 3; assay: Inhibition of STAT3 phosphorylation at tyr705 in human A549 cells at 4 uM after 24 hrs by Western blot analysisis; assay type: cell-based
[9] = Cytotoxicity against human HL-7702 cells assessed as reduction in cell viability after 48 hrs by MTT assay; assay type: toxicity, cell-based; conditions: l02, 48 h
[10] = target: T1, Signal transducer and activator of transcription 3; assay: Inhibition of STAT3 phosphorylation at tyr705 in human MDA-MB-231 cells after 24 hrs by Western blot analysisis; assay type: cell-based
[11] = target: T1, Signal transducer and activator of transcription 3; assay: Inhibition of STAT3 phosphorylation at tyr705 in human A549 cells after 24 hrs by Western blot analysisis; assay type: cell-based
[12] = target: T1, Signal transducer and activator of transcription 3; assay: Inhibition of STAT3 phosphorylation at tyr705 in human MDA-MB-231 cells at 4 uM after 24 hrs by Western blot analysisis; assay type: cell-based
[13] = test system: MDA-MB-231; assay: Induction of apoptosis in human MDA-MB-231 cells assessed increase in cleaved PARP levels at 1 to 4 uM after 24 hrs by Western blot analysisis; assay type: functional, cell-based
[14] = Downregulation of IL6-stimulated STAT3 expression in human MDA-MB-231 cells at 1 to 4 uM preincubated for 2 hrs followed by IL6 stimulation measured after 30 mins by Western blot analysisis; assay type: functional, cell-based
[15] = test system: A549; assay: Induction of apoptosis in human A549 cells assessed increase in cleaved PARP levels up to 4 uM after 24 hrs by Western blot analysisis; assay type: functional, cell-based
[16] = Effect on total STAT3 protein expression in human A549 cells at 1 to 4 uM after 24 hrs by Western blot analysis; assay type: ADME, cell-based; conditions: a549, 24 h
[17] = test system: A549; assay: Selectivity ratio of IC50 for human DU145 cells to IC50 for human A549 cells; assay type: functional

T1 sequence (P40763 whole entry): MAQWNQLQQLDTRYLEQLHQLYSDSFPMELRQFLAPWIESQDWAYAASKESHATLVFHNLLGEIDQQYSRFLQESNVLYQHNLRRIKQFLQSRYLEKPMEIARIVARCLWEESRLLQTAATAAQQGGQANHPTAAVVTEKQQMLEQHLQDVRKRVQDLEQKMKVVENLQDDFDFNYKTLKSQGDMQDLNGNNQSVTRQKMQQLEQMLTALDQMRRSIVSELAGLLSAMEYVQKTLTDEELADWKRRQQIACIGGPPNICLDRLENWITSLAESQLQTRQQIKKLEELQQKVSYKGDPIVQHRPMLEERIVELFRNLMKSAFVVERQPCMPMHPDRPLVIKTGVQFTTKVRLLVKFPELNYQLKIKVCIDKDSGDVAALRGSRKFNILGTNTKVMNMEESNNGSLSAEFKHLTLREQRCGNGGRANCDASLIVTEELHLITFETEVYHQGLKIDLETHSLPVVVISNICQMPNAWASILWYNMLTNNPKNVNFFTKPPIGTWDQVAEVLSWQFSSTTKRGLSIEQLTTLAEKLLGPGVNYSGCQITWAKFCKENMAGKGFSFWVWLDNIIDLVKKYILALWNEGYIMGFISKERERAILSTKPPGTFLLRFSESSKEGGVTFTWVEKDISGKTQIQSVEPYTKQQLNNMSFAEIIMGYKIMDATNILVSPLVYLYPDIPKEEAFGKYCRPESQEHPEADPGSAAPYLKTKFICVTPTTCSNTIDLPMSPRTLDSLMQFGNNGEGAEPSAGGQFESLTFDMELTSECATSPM

Row | Structure (SMILES) | IC50 [1] [µM] | IC50 [2] [µM] | IC50 [3] [µM] | Ratio IC50 [4] | other results
1 | COc1ccc(/C=C2\CC(C(=O)NC(C)C)C/C(=C\c3ccc(OC)cc3)C2=O)cc1 (centres undefined) | > 20 | > 20 | 15.1 |  | 
2 | CCN(CC)CCNC(=O)C1C/C(=C\c2ccc(OC)cc2)C(=O)/C(=C/c2ccc(OC)cc2)C1 (centres undefined) | 3.78 | 6.89 | 6.47 | 1.8 | 
3 | COc1ccc(/C=C2\CC(C(=O)NCCO)C/C(=C\c3ccc(OC)cc3)C2=O)cc1 (centres undefined) | 11.7 | > 20 | 13.7 |  | 
4 | CCN(CC)CCNC(=O)C1C/C(=C\c2ccc(F)cc2)C(=O)/C(=C/c2ccc(F)cc2)C1 (centres undefined) | 0.64 | 1.63 | 1.88 | 2.9 | inhibition [5]: Active; Activity [6]: Non-Toxic; Kd [7]: 7.93 µM; inhibition [8]: 100%; Activity [9]: Non-Toxic; inhibition [10]: Dose-dependent effect; inhibition [11]: Dose-dependent effect; inhibition [12]: 100%; Activity [13]: Active; Activity [14]: Active; Activity [15]: Active; Activity [16]: Non-Toxic
5 | CN1CCN(c2ccc(NC(=O)C3C/C(=C\c4ccc(F)cc4)C(=O)/C(=C/c4ccc(F)cc4)C3)cc2)CC1 (centres undefined) | 0.59 | 2.63 | 3.17 | 5.4 | Activity [9]: Non-Toxic
6 | COc1ccc(/C=C2\CC(C(=O)N3CCN(C)CC3)C/C(=C\c3ccc(OC)cc3)C2=O)cc1 (centres undefined) | 5.46 | 17.6 | 9.07 | 3.2 | 
7 | COc1ccc(/C=C2\CC(C(=O)Nc3ccc(OC)cc3)C/C(=C\c3ccc(OC)cc3)C2=O)cc1 (centres undefined) | > 20 | > 20 | > 20 |  | 
8 | CN1CCN(c2cccc(NC(=O)C3C/C(=C\c4ccccc4)C(=O)/C(=C/c4ccccc4)C3)c2)CC1 (centres undefined) | 1.79 | 8.69 | 5.96 | 4.9 | 
9 | CN1CCN(c2cccc(NC(=O)C3C/C(=C\c4ccc(F)cc4)C(=O)/C(=C/c4ccc(F)cc4)C3)c2)CC1 (centres undefined) | 0.78 | 5.96 | 3.84 | 7.6 | Activity [9]: Non-Toxic
10 | COc1cc(/C=C/C(=O)CC(=O)/C=C/c2ccc(O)c(OC)c2)ccc1O [CURCUMIN] | 24.5 | 44.7 | 15.1 |  | Ratio IC50 [17]: 3
11 | COc1ccc(/C=C2\CC(C(=O)Nc3ccc(N4CCN(C)CC4)cc3)C/C(=C\c3ccc(OC)cc3)C2=O)cc1 (centres undefined) | 3.34 | 7.03 | 3.09 |  | Ratio IC50 [17]: 2.1
12 | COc1ccc(/C=C2\CC(C(=O)N3CCOCC3)C/C(=C\c3ccc(OC)cc3)C2=O)cc1 (centres undefined) | 11.2 | > 20 | 16.2 |  | 
13 | COc1ccc(/C=C2\CC(C(=O)Nc3cccc(N4CCN(C)CC4)c3)C/C(=C\c3ccc(OC)c(O)c3)C2=O)cc1O (centres undefined) | 1.6 | 8.29 | 7.53 | 5.2 | 
14 | COc1ccc(/C=C2\CC(C(=O)Nc3ccc(N4CCOCC4)cc3)C/C(=C\c3ccc(OC)cc3)C2=O)cc1 (centres undefined) | 4.21 | 15.6 | 2.76 |  | Ratio IC50 [17]: 5.7
15 | CCN(CC)CCNC(=O)C1C/C(=C\c2ccc(OC)c(O)c2)C(=O)/C(=C/c2ccc(OC)c(O)c2)C1 (centres undefined) | 6.87 | > 20 | 8.13 |  | 
16 | COc1ccc(/C=C2\CC(C(=O)N3CCN(C(C)=O)CC3)C/C(=C\c3ccc(OC)cc3)C2=O)cc1 (centres undefined) | 5.84 | 17.4 | 8.02 | 3 | 
17 | COc1ccc(/C=C2\CC(C(=O)Nc3ccccc3)C/C(=C\c3ccc(OC)cc3)C2=O)cc1 (centres undefined) | > 20 | > 20 | > 20 |  | 
18 | COc1ccc(/C=C2\CC(C(=O)Nc3cccc(N4CCN(C)CC4)c3)C/C(=C\c3ccc(OC)cc3)C2=O)cc1 (centres undefined) | 3.39 | 10.1 | 3.69 | 3 | 
19 | CCN(CC)CCNC(=O)C1C/C(=C\c2ccccc2)C(=O)/C(=C/c2ccccc2)C1 (centres undefined) | 0.63 | 4.41 | 3.93 | 7 | 
